In brackets after ≈: the same amount, converted by molar mass.

One experiment has as its system PC-3 (prostate cancer) cells. Nature of the experiment: MTT cell growth inhibition, solid tumor cells. The format is cell-based, human. The settings on record: Homo sapiens; PC-3, 72 h, MTT; read-out: IC50. A digest of the protocol:
(§1)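 Exposure lasted 72 h, following 24 h growth of 6000 cells/well in DMEM high glucose containing 10% FBS at 37 °C in 5% CO2; endpoint was MTT-based viable cell concentration across tested compound concentrations.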
With `COc1ccc2cc1Oc1ccc(cc1)C[C@H]1c3cc(c(OC)cc3CCN1C)Oc1c(OCC(O)CN3CCCC(C)C3)c(OC)cc3c1[C@H](C2)N(C)CC3` (stereo partly shown) [BS-FC-410], the IC50 came out at 2.85 µg/mL (≈ 3.73 µM).

The same experiment, now with this note: Homo sapiens; PC-3, 72 h, MTT; read-out: IC90.
As to `COc1ccc2cc1Oc1ccc(cc1)C[C@H]1c3cc(c(OC)cc3CCN1C)Oc1c(OCC(O)CN3CCCC(C)C3)c(OC)cc3c1[C@H](C2)N(C)CC3` (stereo partly shown) [BS-FC-410], the IC90 was 3.89 µg/mL (≈ 5.09 µM).

A further experiment deals with SK-OV-3 (ovarian cancer) cells. Nature of the experiment: MTT cell growth inhibition, solid tumor cells. Type of experiment: cell-based, human. The settings on record: Homo sapiens; SK-OV-3, 72 h, MTT; read-out: IC50. The method in brief:
as §1
Consider `COc1ccc2cc1Oc1ccc(cc1)C[C@H]1c3cc(c(OC)cc3CCN1C)Oc1c(OCC(O)CN3CCCC(C)C3)c(OC)cc3c1[C@H](C2)N(C)CC3` (stereo partly shown) [BS-FC-410], for which the IC50 was found to be 1.39 µg/mL (≈ 1.82 µM).

Staying with this experiment, now noted: Homo sapiens; SK-OV-3, 72 h, MTT; read-out: IC90.
Take `COc1ccc2cc1Oc1ccc(cc1)C[C@H]1c3cc(c(OC)cc3CCN1C)Oc1c(OCC(O)CN3CCCC(C)C3)c(OC)cc3c1[C@H](C2)N(C)CC3` (stereo partly shown) [BS-FC-410]: the IC90 was found to be 5.59 µg/mL (≈ 7.32 µM).

The next experiment deals with Becap-37 (human breast cancer) cells. The experiment can be described thus: MTT cell growth inhibition, solid tumor cells. The format is cell-based. As to conditions: Homo sapiens; Becap-37, 72 h, MTT; read-out: IC50. The method in brief: as §1
As to `COc1ccc2cc1Oc1ccc(cc1)C[C@H]1c3cc(c(OC)cc3CCN1C)Oc1c(OCC(O)CN3CCCC(C)C3)c(OC)cc3c1[C@H](C2)N(C)CC3` (stereo partly shown) [BS-FC-410], the IC50 is 0.73 µg/mL (≈ 0.956 µM).

Staying with this experiment, now noted: Homo sapiens; Becap-37, 72 h, MTT; read-out: IC90.
For `COc1ccc2cc1Oc1ccc(cc1)C[C@H]1c3cc(c(OC)cc3CCN1C)Oc1c(OCC(O)CN3CCCC(C)C3)c(OC)cc3c1[C@H](C2)N(C)CC3` (stereo partly shown) [BS-FC-410], the IC90 was determined as 2.48 µg/mL (≈ 3.25 µM).

Still in this experiment, the particulars now being: relative to fangchinoline, Table 2.
As for `COc1ccc2cc1Oc1ccc(cc1)C[C@H]1c3cc(c(OC)cc3CCN1C)Oc1c(OCC(O)CN3CCCC(C)C3)c(OC)cc3c1[C@H](C2)N(C)CC3` (stereo partly shown) [BS-FC-410], the “anti-Becap37 activity increase over fangchinoline” value was about 3 fold.

The subject of the next experiment is Hela (human cervical cancer) cells. Nature of the experiment: MTT cell growth inhibition, solid tumor cells. Type of experiment: cell-based. The settings on record: Homo sapiens; Hela, 72 h, MTT; read-out: IC50. A digest of the protocol: as §1
Take `COc1ccc2cc1Oc1ccc(cc1)C[C@H]1c3cc(c(OC)cc3CCN1C)Oc1c(OCC(O)CN3CCCC(C)C3)c(OC)cc3c1[C@H](C2)N(C)CC3` (stereo partly shown) [BS-FC-410]: the IC50 came out at 1.33 µg/mL (≈ 1.74 µM).

Still in this experiment, the particulars now being: Homo sapiens; Hela, 72 h, MTT; read-out: IC90.
Take `COc1ccc2cc1Oc1ccc(cc1)C[C@H]1c3cc(c(OC)cc3CCN1C)Oc1c(OCC(O)CN3CCCC(C)C3)c(OC)cc3c1[C@H](C2)N(C)CC3` (stereo partly shown) [BS-FC-410]: the IC90 was 2.41 µg/mL (≈ 3.15 µM).

In a further experiment the test system is Hep G2 (human liver cancer) cells. Nature of the experiment: MTT cell growth inhibition, solid tumor cells. Type of experiment: cell-based. As to conditions: Homo sapiens, HepG2; Hep G2, 72 h, MTT; read-out: IC50. A digest of the protocol:
as §1
Consider `COc1ccc2cc1Oc1ccc(cc1)C[C@H]1c3cc(c(OC)cc3CCN1C)Oc1c(OCC(O)CN3CCCC(C)C3)c(OC)cc3c1[C@H](C2)N(C)CC3` (stereo partly shown) [BS-FC-410], for which the IC50 is 0.66 µg/mL (≈ 0.864 µM).

The experiment is the same for the next values; noted with them: Homo sapiens, HepG2; Hep G2, 72 h, MTT; read-out: IC90.
On to `COc1ccc2cc1Oc1ccc(cc1)C[C@H]1c3cc(c(OC)cc3CCN1C)Oc1c(OCC(O)CN3CCCC(C)C3)c(OC)cc3c1[C@H](C2)N(C)CC3` (stereo partly shown) [BS-FC-410], for which the IC90 came out at 1.51 µg/mL (≈ 1.98 µM).

Still in this experiment, the particulars now being: relative to fangchinoline, Table 2.
`COc1ccc2cc1Oc1ccc(cc1)C[C@H]1c3cc(c(OC)cc3CCN1C)Oc1c(OCC(O)CN3CCCC(C)C3)c(OC)cc3c1[C@H](C2)N(C)CC3` (stereo partly shown) [BS-FC-410]: the “anti-Hep G2 activity increase over fangchinoline” value is reported as about 3 fold.

A further experiment has as its system MG-63 (osteosarcoma) cells. The experiment can be described thus: MTT cell growth inhibition, solid tumor cells. As to conditions: Homo sapiens; MG-63, 72 h, MTT; read-out: IC50. The format is cell-based. The method in brief:
as §1
Consider `COc1ccc2cc1Oc1ccc(cc1)C[C@H]1c3cc(c(OC)cc3CCN1C)Oc1c(OCC(O)CN3CCCC(C)C3)c(OC)cc3c1[C@H](C2)N(C)CC3` (stereo partly shown) [BS-FC-410], for which the IC50 was 1.1 µg/mL (≈ 1.44 µM).

The experiment is the same for the next values; noted with them: Homo sapiens; MG-63, 72 h, MTT; read-out: IC90.
For the compound `COc1ccc2cc1Oc1ccc(cc1)C[C@H]1c3cc(c(OC)cc3CCN1C)Oc1c(OCC(O)CN3CCCC(C)C3)c(OC)cc3c1[C@H](C2)N(C)CC3` (stereo partly shown) [BS-FC-410], the IC90 stood at 1.7 µg/mL (≈ 2.23 µM).

The subject of the next experiment is RKO (human colon adenocarcinoma) cells. The experiment can be described thus: MTT cell growth inhibition, solid tumor cells. The format is cell-based. The settings on record: Homo sapiens; RKO, 72 h, MTT; read-out: IC50. A digest of the protocol: as §1
In the case of `COc1ccc2cc1Oc1ccc(cc1)C[C@H]1c3cc(c(OC)cc3CCN1C)Oc1c(OCC(O)CN3CCCC(C)C3)c(OC)cc3c1[C@H](C2)N(C)CC3` (stereo partly shown) [BS-FC-410], the IC50 was found to be 0.44 µg/mL (≈ 0.576 µM).

Staying with this experiment, now noted: Homo sapiens; RKO, 72 h, MTT; read-out: IC90.
`COc1ccc2cc1Oc1ccc(cc1)C[C@H]1c3cc(c(OC)cc3CCN1C)Oc1c(OCC(O)CN3CCCC(C)C3)c(OC)cc3c1[C@H](C2)N(C)CC3` (stereo partly shown) [BS-FC-410]: the IC90 was determined as 0.95 µg/mL (≈ 1.24 µM).

The subject of a further experiment is U87-MG (malignant glioma) cells. The experiment can be described thus: MTT cell growth inhibition, solid tumor cells. Type of experiment: cell-based. The settings on record: Homo sapiens, U-87 MG; U87-MG, 72 h, MTT; read-out: IC50. A digest of the protocol:
as §1
In the case of `COc1ccc2cc1Oc1ccc(cc1)C[C@H]1c3cc(c(OC)cc3CCN1C)Oc1c(OCC(O)CN3CCCC(C)C3)c(OC)cc3c1[C@H](C2)N(C)CC3` (stereo partly shown) [BS-FC-410], the IC50 amounted to 0.67 µg/mL (≈ 0.877 µM).

The experiment is the same for the next values; noted with them: Homo sapiens, U-87 MG; U87-MG, 72 h, MTT; read-out: IC90.
`COc1ccc2cc1Oc1ccc(cc1)C[C@H]1c3cc(c(OC)cc3CCN1C)Oc1c(OCC(O)CN3CCCC(C)C3)c(OC)cc3c1[C@H](C2)N(C)CC3` (stereo partly shown) [BS-FC-410]: the IC90 worked out at 1.19 µg/mL (≈ 1.56 µM).

Another experiment concerns tumor. Nature of the experiment: Antitumor activity compared with fangchinoline, overall statement. The format is cell-based. As to conditions: tumor type not specified.
As for `COc1ccc2cc1Oc1ccc(cc1)C[C@H]1c3cc(c(OC)cc3CCN1C)Oc1c(OCC(O)CN3CCCC(C)C3)c(OC)cc3c1[C@H](C2)N(C)CC3` (stereo partly shown) [BS-FC-410], the “antitumor activity compared with that of fangchinoline” value is on record as “significantly superior”.

For the origin of these results see US9328122B2, “7-substituted Hanfangichin B derivative, and preparation method and use thereof” (HANGZHOU BENSHENG PHARMACEUTICAL CO., LTD., priority 2012, dated 2016).
